The text below walks through data of a melting point compilation (Tetko et al.; mined from patent text by program, amines drawn as free bases though some values may be those of a salt).

One may read the melting point as the temperature of the solid-liquid transition. In turn, `CC1=C(C(=O)OCCOc2ccccc2)C(c2ccccc2C(F)(F)F)c2c(ccnc2OCC(C)C)N1` (stereo unspecified) yielded a melting point of 108 to 109 °C.

Take `CC(=O)NCc1cccc(-c2nc(=O)c3ccccc3s2)n1`: the melting point fell in the range of 199 to 200 °C.

Molecule `O=C(Nc1ccc(Oc2ccnc(N3CCC(O)CC3)n2)c2ccccc12)c1cc(F)cc(N2CCOCC2)c1` displayed a melting point of 106 to 108 °C.

Consider `CCN(CC)C(=O)c1ccc2ccccc2c1-c1ccsc1`, for which the melting point lay in the range of 71 to 73 °C.

`NS(=O)(=O)Oc1ccccc1F` showed a melting point of 63 to 64 °C.

`COC(=O)CC(=O)COc1cc(O)c2c(c1)OC(c1ccc(OC)c(O)c1)CC2=O` (stereo unspecified): the melting point was 114 to 118 °C.

Molecule `CCCCCCCCNC(=O)N=C(NC(=O)NCC)OC` registered a melting point of 88 to 90 °C.

The molecule `COc1ccccc1N1CCN(C(=O)Nc2nc(C)c(C)nc2OC)CC1` yielded a melting point of 184 to 185 °C.

`CC(C)c1ccc(N(Cc2cnn(Cc3ccccc3)c2)C(=O)C2CCCc3c(O)cccc32)cc1` (stereo unspecified) gave a melting point of 130 °C.

Molecule `CCCc1nc2cnc3ccccc3c2n1CCC1(O)CCOCC1` registered a melting point of 186 to 188 °C.

Take `CC(C)(C)c1cc(C(O)CN)cc(C(C)(C)C)c1O` (stereo unspecified): the melting point is 137 to 140 °C.

Take `COc1cc(OC)c2c(=O)[nH]c(-c3cc(C)cc(OCCO)c3)nc2c1`: the melting point lay within 107 to 109 °C.

For `O=c1c(NCCCBr)c(OC2CCCCC2)c1=O`, the melting point was in the range of 68 to 70 °C.

As for `NC1CC(=O)N(Cc2ccccc2)C1=O` (stereo unspecified), the melting point was 74 to 77 °C.

The molecule `CC(C)(C)c1cc(C(c2ccc(C(F)(F)F)cc2)N2CCCCC2)c(O)c(C(C)(C)C)c1` (stereo unspecified) gave a melting point of 150 to 152 °C.

In the case of `CNC(=O)C(C)Oc1ncn(-c2ccc(C(F)(F)F)cc2)n1` (stereo unspecified), the melting point lay in the range of 157 to 158 °C.

Molecule `C=CC(=O)C1C(=O)N(c2ccc(OC)cc2)C1c1ccccc1Cl` (stereo unspecified) had a melting point of 99 to 100 °C.

For the molecule `CS(=O)C1(c2ccncc2)CNN=C1c1ccc(F)cc1` (stereo unspecified), the melting point worked out at 263 °C.

`CCC1(CC)C(=O)N(c2ccc(C#N)c(C(F)(F)F)c2)C(=S)N1C` returned a melting point of 126 to 127 °C.

In turn, `CSc1nc(N)c2ncn(C3CCCCC3)c2n1` yielded a melting point of 222 to 224 °C.

The molecule `CC(=O)Oc1nc(-c2ccc(C)cc2)sc1-c1ccccc1` had a melting point of 122 to 125 °C.

As to `CCCCOc1cc2c(nc(O)n2Cc2ccccc2)c(N)n1`, the melting point was in the range of 205 to 208 °C.

On to `CCCN(CCC)C(=O)Cc1ccc(OCC(=O)c2ccc(OC)cc2)c([N+](=O)[O-])c1`, for which the melting point is 95 to 97 °C.

On to `COCCC1(C(=O)N[C@@H](Cc2ccc(NC(=O)c3c(Cl)cccc3Cl)cc2)C(=O)O)CCCC1`, for which the melting point fell in the range of 136 to 140 °C.

`O=C(c1ccc(-c2cnc3c(c2)N(Cc2cc(F)ccc2F)CCN3)cn1)N1CCOCC1` came in with a melting point of 111 to 113 °C.

`CC(C)Sc1nc(-n2ccnc2)c(I)c(C(F)(F)F)n1` displayed a melting point of 118 to 120 °C.

As for `Cc1nc(C)c(C(=O)Nc2cc(Oc3ccc4nc(NC(=O)C5CC5)cn4n3)ccc2F)o1`, the melting point amounted to 202 °C.

In the case of `OC1CCc2cccc(Nc3cc(-c4ccc(C(F)(F)F)cc4)ncn3)c2C1` (stereo unspecified), the melting point was in the range of 178 to 179 °C.

Consider `CCCCN1CC(C(=O)OC)N(S(=O)(=O)c2ccc(-c3ccc(Br)cc3)cc2)CC1=O` (stereo unspecified), for which the melting point lay in the range of 113 to 115 °C.

`Cc1csc2[nH]c(=O)nc(-c3ccccc3F)c12` showed a melting point of 258 to 261 °C.

Take `CN(c1ccc(O)cc1)c1nc2cc(Cl)c(Cl)cc2nc1Cl`: the melting point came to 176 °C.

The molecule `Nc1cccc2c1ncc1nc3n(c12)CCCC3` returned a melting point of 275 to 278 °C.

Regarding `Cc1cccc(C)c1Oc1ccc2ccc(N)nc2n1`, the melting point worked out at 218 °C.

With `FC(F)(F)c1ccc(-c2ccc3ccn(Cc4ccccc4)c3c2)cc1`, the melting point was 83 to 85 °C.

Molecule `Brc1ccc2noc(-c3ccccc3)c2c1` returned a melting point of 113 to 116 °C.

On to `CCc1nc2c(cnn2CC)c(NC2CCOCC2)c1CNC(=O)c1cc(C)cc(C(=O)NCc2cccc(-c3cccc(CC4CCN(C)CC4)c3)c2)c1`, for which the melting point was in the range of 119 to 121 °C.

`Cc1ccc(C(=O)Cc2ccccc2)cc1` displayed a melting point of 107 to 111 °C.

`CCCCCCCCCCCCCCCCCCOc1ccc(OCCCOc2ccc(OCc3ccccc3)cc2)c(C(=O)N(CC(=O)O)CC(=O)O)c1` returned a melting point of 70 to 74 °C.

`N#Cc1cccc2c1COc1ccc(OCc3ccc4ccc(Cl)cc4n3)cc1C2SCCC(=O)O` (stereo unspecified) gave a melting point of 193 to 195 °C.

On to `Cn1ncc(/C=C/C(=O)Nc2ccc(Cc3nc4ccccc4[nH]3)cc2)c1-c1ccc(F)cc1`, for which the melting point was above 300 °C.

The molecule `NC(=O)CNC(=O)c1cc(F)cc(-c2ccc(F)c3cc(Cc4cc(F)cc(Cl)c4)sc23)c1` yielded a melting point of 192 to 194 °C.

For `Oc1cccc(C2CCCN2Cc2ccccn2)c1` (stereo unspecified), the melting point lay within 96 to 98 °C.

`Cc1c(-c2ccccc2)c(Cl)nc2ccccc12`: the melting point fell in the range of 88 to 90 °C.

`Cn1c(-c2ccccc2S(=O)c2nc3ccccc3[nH]2)nc2ccccc21` (stereo unspecified): the melting point was 164 °C.

`CCn1c([N+](=O)[O-])cnc1-c1nnc2ccc(Cl)nn12` had a melting point of 164 to 166 °C.

In the case of `O=[N+]([O-])c1ccc(OCc2cccc(F)c2)cc1`, the melting point was in the range of 104 to 105 °C.

Regarding `CN(C)CCCC(O)c1ccc(F)cc1-c1ccccc1` (stereo unspecified), the melting point lay within 60 to 62 °C.

Consider `O=C1CC(c2cccc(-n3ccnn3)c2)=Nc2cc(O)c(C#Cc3ccc(F)cc3)cc2N1`, for which the melting point was 243 °C.

Turning to `CS(=O)(=O)c1ccc(-c2cc(C(F)(F)F)nn2C2CCCCC2)cc1F`, the melting point is 228 to 229 °C.

For `CC(C)N(C(=S)Nc1ccccc1[N+](=O)[O-])C1CCN(CCc2ccccc2)CC1`, the melting point worked out at 101 °C.

Molecule `Cc1c(C(=O)Nc2ccc(OCC(C)(C)C)c(C#N)c2)cnn1-c1cccc(C(F)(F)F)c1` yielded a melting point of 116 to 118 °C.

Take `NS(=O)(=O)c1ccc(S(=O)(=O)c2ccc(OC(=O)c3cccnc3)cc2)s1`: the melting point was in the range of 200 to 201 °C.

With `CC(=O)OCCCC(=O)CC(=O)c1ccccc1`, the melting point was in the range of 48 to 49 °C.

`CCc1nn(-c2ccccn2)c2[nH]c3cc(F)c(F)cc3c(=O)c12` gave a melting point of 247 to 248 °C.

The molecule `COCc1nc(S)nc(O)c1OC` returned a melting point of 187 to 189 °C.

Regarding `CN(C(=O)Cc1ccc2oc(=O)[nH]c2c1)[C@H](CN1CC[C@H](O)C1)c1ccccc1`, the melting point is 207 to 208 °C.

The molecule `CCOC(=O)c1cnc2c(SC(=O)N(C)C)nccn2c1=O` came in with a melting point of 125 to 128 °C.

Molecule `CC(C)=CCOc1ccc(C(=O)C=Cc2ccco2)c(O)c1` gave a melting point of 75 to 77 °C.

Take `CCN1C(=O)C(C)(C)C(=O)N(C)c2cc(CN(CCn3ccc4oc(C)cc4c3=O)Cc3ccc(C=O)cc3)ccc21`: the melting point was in the range of 153 to 155 °C.

As to `COc1cccc(-c2cc(Cl)c3cc(OC)ccc3n2)c1`, the melting point is 106 to 107 °C.

In the case of `Ic1ccc(-c2nc3ccccc3n2-c2ccccc2)cc1`, the melting point was in the range of 178 to 181 °C.

`C=CCOc1cc(C)ccc1[N+](=O)[O-]` gave a melting point of 30 to 32 °C.

Regarding `NS(=O)(=O)c1ccc(NC(=O)CNc2ccccc2)cc1C(F)(F)F`, the melting point is 172 °C.

With `O=C(c1ccc(O)nc1)N1CCN=C1Nc1c(Cl)cccc1Cl`, the melting point lay within 256 to 258 °C.

Molecule `O=C(O)c1ccccc1OCCN1CCC(c2cn(CCOc3ccc4c(c3)OCO4)c3ccccc23)CC1` registered a melting point of 123 to 125 °C.

As for `Cc1ccc(-c2ccc3c(c2)C=C(C(=O)Nc2ccc(CNCc4ccccc4)cc2)CCO3)cc1`, the melting point fell in the range of 147 to 148 °C.

Take `CCOC(CN1CCN(c2cccc(-n3cnc4cc(C(C)=O)ccc43)c2)CC1)=NO`: the melting point lay within 154 to 156 °C.

`CCc1ccc(Nc2c(C(=O)NN)ccc(F)c2F)c(F)c1`: the melting point fell in the range of 97.9 to 98.5 °C.

`Nc1cc(C(=O)NNC(=O)c2occ(-c3ccccc3)c2-c2ccccc2)ccc1O`: the melting point fell in the range of 268 to 270 °C.

In the case of `CC(=O)Nc1ccc(OCCCBr)cc1`, the melting point is 120 °C.

`O=C(Nc1ccc(Oc2ccccc2)cc1)N1CCN(c2ncnc3cc([N+](=O)[O-])ccc23)CC1`: the melting point lay within 146 to 148 °C.

With `CCCCOc1ccc(NC(=O)N(C)c2cccc(-c3ccc(CCC(=O)O)cc3)c2)cc1`, the melting point was found to be 165 °C.

`CCOCCNC(=O)c1ccc(CN2C(=O)C3(COc4cc5c(cc43)CCO5)c3ccccc32)cc1` (stereo unspecified) came in with a melting point of 84 to 85 °C.

For the molecule `O=Cc1ccc(OCCCCCCOc2ccc(C=O)cc2)cc1`, the melting point lay within 110 to 111 °C.

Molecule `CC1(C)Cc2sccc2C1N` (stereo unspecified) yielded a melting point of 80 °C.

Turning to `O=C(O)Cc1cc(C(=O)c2ccccc2)ccc1O`, the melting point worked out at 205 °C.

`CCCCCn1cc2cc(CCCC)oc2nc1=O` returned a melting point of 139 to 141 °C.

As for `O=C(CN1CCOCC1)Nc1nc2c(Oc3cc(-c4ccc(C(F)(F)F)cc4)ncn3)cccc2s1`, the melting point lay within 178 to 182 °C.

Consider `Cc1ccc2cccc(OCc3c(Cl)ccc(S(N)(=O)=O)c3Cl)c2n1`, for which the melting point was 206 to 208 °C.

The molecule `CC[C@H](C)[C@H](NC(=O)O[C@@H](CC(C)C)C(=O)O)C(=O)NC(C)C` came in with a melting point of 179 to 180 °C.

`O=C(c1cc2c(Br)cccc2o1)c1cc2c(Br)cccc2o1` yielded a melting point of 223 to 225 °C.

Turning to `CCCc1c(OCCCCCCc2ccc(OCCCC(=O)O)cc2/C=C/C(=O)O)ccc2c1OCCC2=O`, the melting point lay within 140 to 143 °C.

Regarding `CCOP(=O)(/C=C/c1cn(-c2ccccc2)nc1OCc1ccc(OCc2nc(-c3cccc(C(=O)O)c3)oc2C)c(OC)c1)OCC`, the melting point lay within 148 to 149 °C.

Turning to `CC(Oc1ncn(-c2ccc(Br)cc2)n1)C(=O)NC1CC1` (stereo unspecified), the melting point was 170 to 172 °C.

In turn, `COC(CNC(=O)c1ccc(C(=O)N2CCN(c3ncccc3NC(C)C)CC2)nc1)OC` registered a melting point of 167 to 169 °C.

As for `CCc1nc(C(=O)c2ccc(Cl)cc2Cl)c(C(C)O)n1C(CC)CC` (stereo unspecified), the melting point is 125 to 126 °C.
